Literature values, collected in patent publication US20060264496A1, “Substituted indoline and indole derivatives” (priority 2003, published 2006).

Assays:
[1] = test system: animal models of ethanol withdrawal syndrome
[2] = test system: epileptic patients; conditions: clinical trials
[3] = test system: electrically induced seizures, seizures induced chemically by pentylenetetrazole, picrotoxin and N-methyl-D-aspartate (NMDA), DBA/2 mouse; conditions: oral and intraperitoneal administration, rats and mice
[4] = test system: animal models of anxiety-like behaviour; conditions: some animal models
[5] = test system: amygdala kindling model; conditions: complex partial seizures
[6] = test system: kainic acid-induced status epilepticus; conditions: rat, following kainic acid-induced status epilepticus
[7] = test system: animal models of neuropathic pain
[8] = test system: hippocampal kindling; conditions: rat
[9] = test system: K(+) current in neuronal cells

| SMILES | effect in ethanol withdrawal syndrome models [1] | incidence of seizures [2] | anticonvulsant activity [3] | activity in anxiety-like behaviour models [4] | activity in amygdala kindling model [5] | limbic neurodegeneration and expression of markers of apoptosis [6] | effect in neuropathic pain models [7] | progression of hippocampal kindling [8] | activation of K(+) current [9] |
| --- | --- | --- | --- | --- | --- | --- | --- | --- | --- |
| NCC1(CC(=O)O)CCCCC1 [gabapentin] | very effective |  |  |  |  |  |  |  |  |
| CCOC(=O)Nc1ccc(NCc2ccc(F)cc2)cc1N [Retigabine, N-(2-amino-4-(4-fluorobenzylamino)-phenyl)carbamic acid ethyl ester] |  | effectiveness in reducing the incidence of seizures | active | active | active | prevent limbic neurodegeneration and the expression of markers of apoptosis | beneficial | delay the progression of hippocampal kindling | activate a K(+) current |
